Assay: Gravimetric vapour sorption (GVS) / moisture sorption
Format: physicochemical
Conditions: at 95% RH; 25° C.
Experimental: Gravimetric Vapour Sorption (GVS) Analysis
Measurements are performed on a multi sample instrument SPS-100n (Projekt Messtechnik, Ulm, Germany) operated in stepping mode at 25° C.

Moisture sorption: Sorption of 6.9% at 95% RH
Structure (SMILES): O=C(N[C@H]1CCN(CC2CC2)C[C@@H]1C(=O)NC1(c2ncccn2)CC1)c1cc(-c2ccc(F)cc2F)on1 [Example 2, (3S,4S)-1-Cyclopropylmethyl-4-{[5-(2,4-difluoro-phenyl)-isoxazole-3-carbonyl]-amino}-piperidine-3-carboxylic acid (1-pyrimidin-2-yl-cyclopropyl)-amide in Crystalline Form 2]

From patent US11339148B2, “Crystalline forms of the CXCR7 receptor antagonist (3S,4S)-1-Cyclopropylmethyl-4-{[5-(2,4-difluoro-phenyl)-isoxazole-3-carbonyl]-amino}-piperidine-3-carboxylic acid (1-pyrimidin-2-yl-cyclopropyl)-amide” (IDORSIA PHARMACEUTICALS LTD., priority 2018, dated 2022)
